1 compound from PubChem BioAssay AID652058 (Broad Institute, 2013) can be followed below.

The assay concerns HeLa Env/CEM cell fusion, luciferase, 16-24 h. Nature of the assay: blockers of HIV-1 ZM109 envelope-driven cell-cell fusion – HeLa effector, CEM target cells, luciferase, cherry-pick, dose response (AID 652058).

The structures appear in SMILES notation. Records with an inconclusive call do not appear.

What is called AC50 is the concentration at which the activity in the assay is half-maximal.

For `O=C(C[C@H]1C[C@H]2c3cc(NC(=O)c4ccc5c(c4)OCO5)ccc3O[C@H]2[C@H](CO)O1)NCc1ccc(Oc2ccccc2)cc1`, the AC50 was 13.7 µM.
